Measured values as given in ChEMBL document CHEMBL3507680, “University of Dundee, Gates Library screen for HepG2 cell viability”.

Test: Human HepG2 cell viability assay in 384 well format
Type: toxicity, cell-based
Design: dose 125 nL, time 70.5 hour; concentration not given beside the values
Conditions: HepG2 cells, read-out: Inhibition

SMILES | cytotoxicity at 70.5 h [%]
Cc1oc(C)c(C(=O)NCc2ccccc2CN(C)C)c1C | 16.8
Cc1ccc(C(=O)NCCCNc2ccc(C(F)(F)F)cn2)cc1 | -9.05
O=C(NCCCNc1ccc(C(F)(F)F)cn1)c1ccccc1 | -8.08
Nc1nccnc1C(=O)NCCCNc1ccc(C(F)(F)F)cn1 | 2.59
CN(C)c1ccc(C(=O)NCCCNc2ccc(C(F)(F)F)cn2)cc1 | -13
CC(C)C(=O)NCCNC(=O)CCOc1cccc(F)c1 | -11.3
CCOc1ncccc1CNC(=O)c1c(C)oc(C)c1C | -9.43
CCCc1nnc(NC(=O)Cc2c(C)nc(C)[nH]c2=O)s1 | -6.43
Cc1cc(NC(=O)NCC(O)c2ccc(F)c(F)c2)n(C)n1 (stereo not drawn) | 13.9
Cc1ccc(C(O)CNC(=O)Nc2cc(C)nn2C)cc1 (stereo not drawn) | -3.09
COc1ccc(OC)c(C(O)CNC(=O)Nc2cc(C)nn2C)c1 (stereo not drawn) | -7.8
CC(Cn1ccnc1)NC(=O)NCc1ccccn1 (stereo not drawn) | -15.6
Cc1noc2ncc(C(=O)NCC3CCCOC3)cc12 (stereo not drawn) | -8.17
Cc1cc(C)c(CNC(=O)C2CCN(c3cnccn3)CC2)c(=O)[nH]1 | -3.48
CCn1ccnc1CN1CCN(CCC(=O)NC2CCCCC2)CC1 | -6.92
CCC(C)NC(=O)CCNC(=O)Nc1ccc(-n2cncn2)c(F)c1 (stereo not drawn) | -10.1
O=C(CC1C=CCC1)Nc1ncn(CC(=O)N2CCCCCC2)n1 (stereo not drawn) | -13.4
Cc1cc(C)n(CCC(=O)N2CCC(Nc3cccnn3)CC2)n1 | -12.8
CCCNC(=O)NC(=O)CN1CCN(Cc2nccn2CC)CC1 | -9.22
CN(C(=O)Nc1ccncc1)C1CCN(c2ccccc2)C1=O (stereo not drawn) | -11.8
CN(Cc1csc(-c2cnn(C)c2)n1)CC1CCN(CCO)CC1 | 18.5
c1ccc(-c2nc(CNCC3CCCN3c3cccnn3)co2)cc1 (stereo not drawn) | 12.4
c1cnnc(N2CCCC2CNCc2cscn2)c1 (stereo not drawn) | -15
Cc1ccsc1C(=O)N(C)Cc1ccncc1 | -7.89

SMILES | cytotoxicity at 70.5 h [%]
CCn1cc(NC(=O)NCC(c2ccc(OC)cc2)N(C)C)cn1 (stereo not drawn) | -5.2
CC(C)(C)c1noc(CN2CCCCC2Cn2cncn2)n1 (stereo not drawn) | -0.0275
CN(CC1COc2ccccc2O1)C(=O)CCn1cncn1 (stereo not drawn) | -9.47
Cc1ccc(CN(C)C(=O)c2scnc2C)cc1 | -3.98
Cc1ccccc1CNC(=O)Cn1nc(-c2ccc(F)cc2)oc1=O | -9.26
COc1ccccc1CNC(=O)Cn1nc(-c2ccc(F)cc2)oc1=O | 10.9
CN(CC1COc2ccccc2O1)C(=O)NCCCn1cccn1 (stereo not drawn) | -8.71
CCn1cc(NC(=O)NCC(c2cccc(OC)c2)N(C)C)cn1 (stereo not drawn) | -8.98
Cc1c(C(=O)NCc2ccnc(OCC(F)(F)F)c2)cnn1C | -4.98
COc1cc(CNC(=O)c2c(C)noc2C)ccn1 | -4.45
Cc1cc(C)n(-c2ccc(CNCc3ccc(F)cc3F)cn2)n1 | -11.6
Cc1cccnc1NC(=O)N(CCO)Cc1ccsc1 | -4.42
Cc1ccc(C(=O)N2CCC(Oc3ccc(C)c(C)c3)CC2)c(=O)[nH]1 | -2.32
Cc1cnn(CC2CN(c3nnc(C)c(C)c3C#N)CCO2)c1 (stereo not drawn) | -3.86
COc1cccc(CCC(=O)N2CCN(CC(C)(C)O)CC2)c1 | 10.1
CC(C)(O)CN1CCN(C(=O)COCc2ccccc2Cl)CC1 | -0.918
COCCN1CCN(Cc2csc(-c3cnn(C)c3)n2)CC1 | -7.26
CC(C)c1nnc2n1CCN(CCC(=O)N1CCc3ccccc31)C2 | -5.29
Cc1cn2c(n1)CCC(NC(=O)c1ccc(S(C)(=O)=O)o1)C2 (stereo not drawn) | 6.89
CCOCCN1CCN(Cc2csc(-c3cnn(C)c3)n2)CC1 | -13.2
CS(=O)(=O)Cc1ccc(C(=O)NC2CCc3nccn3C2)o1 (stereo not drawn) | -6.33
Cc1noc(C)c1CC(=O)NCc1ccnc(OCC(F)(F)F)c1 | -7.45
COc1cc(CNCc2ccc(-n3nc(C)cc3C)nc2)cc(OC)c1 | -5.72
CN(C)C1CCN(C(=O)Cc2csc(-c3ncccn3)n2)CC1 | 0.448

SMILES | cytotoxicity at 70.5 h [%]
CC(NC(=O)CCCc1nc(C(C)(C)C)no1)c1ccccn1 (stereo not drawn) | 10.9
CN(C)c1ccc(C(=O)Nc2cn[nH]c2)cc1 | -2.5
COCC(=O)NC(C)c1cccc(Br)c1 (stereo not drawn) | -2.66
Cc1ccc(C(=O)Nc2cn[nH]c2)cc1 | -6.42
CN(Cc1ccco1)C(=O)NC1CCCN(c2ncccn2)C1 (stereo not drawn) | 8.71
Cc1noc(CCCC(=O)NC(C)c2ccc(Cl)s2)n1 (stereo not drawn) | -7.88
Cc1cc(CN2CCN(C(=O)NC(C)Cn3cccn3)CC2)no1 (stereo not drawn) | -9.58
Cc1cc(CN(C)C(=O)NC2CCN(c3ncccn3)CC2)no1 | -0.403
O=C(NCCCn1cncn1)N1CCCCCC1 | 1.12
CCN(Cc1ccc2c(c1)OCCO2)C(=O)c1ccc(C)[nH]c1=O | -1.79
CCOc1ccc(CN(CC)C(=O)c2ccc(C)[nH]c2=O)cc1OC | -0.243
CC(=O)N1CCCN(C(=O)NCCCn2cncn2)CC1 | -0.358
CN1CCCC1CNC(=O)CCCOc1cccc(Br)c1 (stereo not drawn) | 17.7
O=C(NCCCn1cncn1)N1CCC(N2CCCCC2)CC1 | -2.83
O=C(CCc1ccncc1)N1CCCC(n2cccn2)C1 (stereo not drawn) | -1.5
O=C(Nc1cc(F)ccc1OCC1CCCO1)c1ccoc1 (stereo not drawn) | -2.66
COCCn1cc(C(=O)N2CCCC(n3cncn3)C2)ccc1=O (stereo not drawn) | 8.17
O=C(Nc1ccccc1OCC1CCCCO1)c1ccc(O)nc1 (stereo not drawn) | -13
COCc1nc(CN2CCOC(CN(C)c3cccnn3)C2)cs1 (stereo not drawn) | 2.04
COc1ccc(-c2noc(CN3CC(n4cccn4)C3)n2)c(OC)c1 | -7.32
Cc1nc(C)c(CN2CCOC(CN(C)c3cccnn3)C2)s1 (stereo not drawn) | -8.03
CCc1nnsc1C(=O)N1CCCN(Cc2ccc(F)cc2)CC1 | -9.04
CCc1nnsc1C(=O)N1CCCN(Cc2cnn(CC)c2)CC1 | -7.53
O=C(Cc1ccc2c(c1)OCCO2)N1CCCC(n2cncn2)C1 (stereo not drawn) | -9.12

SMILES | cytotoxicity at 70.5 h [%]
CCc1nc(C)c(C(=O)N2CCCN(Cc3cnn(C)c3)CC2)s1 | -9
Cc1nc(C2CCCN2Cc2nnc(Cc3ccccc3)o2)no1 (stereo not drawn) | 2.42
Cc1nnc(N2CCC(CCN(C)C)CC2)c(C#N)c1C | -11.2
CC(C)C(=O)NCc1ccc(-n2cncn2)nc1 | -4.44
CCc1nnsc1C(=O)N1CCCN(Cc2ccc(C)cc2)CC1 | -8.18
CCCS(=O)(=O)NC1CCN(c2nnc(C)c(C)c2C#N)CC1 | -6.18
CC(=O)Nc1nc(C(=O)NC(C)c2cccnc2)cs1 (stereo not drawn) | -6.5
Cc1cc(CN(C)C(=O)NCC2CCS(=O)(=O)C2)no1 (stereo not drawn) | -9.21
CS(=O)(=O)c1ccc(CNC(=O)NCC2CCOC2)cc1 (stereo not drawn) | 4.53
CCC(C)C(=O)NCc1ccc(-n2cncn2)nc1 (stereo not drawn) | -6.68
CCC(C)C(=O)NCc1cccc(N2CCCCC2=O)c1 (stereo not drawn) | -4.37
CC(C(=O)NCc1cccc(N2CCCC2=O)c1)S(C)(=O)=O (stereo not drawn) | 0.0426
O=C(CCc1ccc2c(c1)OCO2)N1CCCC(n2cccn2)C1 (stereo not drawn) | 13.3
CCOc1ccccc1-c1noc(CN2CCOC(CN(C)C)C2)n1 (stereo not drawn) | -10.8
Cc1nnc(N2CCCC(CS(N)(=O)=O)C2)c(C#N)c1C (stereo not drawn) | -2.95
CCCOCC(=O)N1CCCN(Cc2csc(CC)n2)CC1 | 6.02
Cc1ccccc1CCNC(=O)N1CCCC(c2nncn2C)C1 (stereo not drawn) | -9.14
Cc1ccc(C)c(NC(=O)C(C)N2CCCN(c3nccs3)CC2)c1 (stereo not drawn) | -6.54
CCn1cnnc1C1CCN(C(=O)COc2ccc(Cl)cc2)CC1 | -9.99
CCc1nc(CN2CCN(C(=O)c3cc(C)no3)CC2)cs1 | -8.13
CCc1noc(C)c1C(=O)N1CCCN(Cc2csc(C)n2)CC1 | -9.45
CCc1nc(CN2CCCN(C(=O)c3cn[nH]c3C)CC2)cs1 | -6.19
CCOCC(O)CN1CCN(C(=O)c2cccc3[nH]ncc23)CC1 (stereo not drawn) | -4.87
CCc1nc(CN2CCCN(C(=O)COC)CC2)cs1 | -6.47

SMILES | cytotoxicity at 70.5 h [%]
COc1ccc(Cl)cc1C(=O)N(C)Cc1cc(C)on1 | -3.26
CC(C)c1cc(C(=O)NCCn2nc3ccccn3c2=O)n[nH]1 | -4.09
CC(C)Cc1cc(C(=O)NCCn2nc3ccccn3c2=O)[nH]n1 | -3.87
CCN(Cc1nc2c(cnn2C)c(=O)[nH]1)Cc1ccccc1C | 1.06
CC(C)(O)CN1CCN(C(=O)c2cccc3[nH]ncc23)CC1 | -1.27
Cc1nc(CC(=O)N2CCC(Nc3cccnn3)CC2)cs1 | -6.73
O=C(CN1CCN(c2ccc3nncn3n2)CC1)NC1CCCCC1 | -11.1
Cc1noc(C(C)N2CCN(Cc3cccc(C#N)c3)CC2)n1 (stereo not drawn) | -5.03
CC(C)c1noc(C(C)N2CCN(Cc3cccc(C#N)c3)CC2)n1 (stereo not drawn) | -11
CCn1nc2c(cc1=O)CN(Cc1nnc(C3CC3)o1)CC2 | 2.46
c1coc(-c2nc(CN3CCn4c(nnc4C4CC4)C3)cs2)c1 | -8.26
Cn1nc2c(cc1=O)CN(Cc1nc(C3CC3)no1)CC2 | -8.63
CCCOc1cccc(NS(=O)(=O)c2cc(C(=O)O)cs2)c1 | 4.51
COc1c(C2CCCN2Cc2csc(C(C)C)n2)c(C)nn1C (stereo not drawn) | 41
Cc1nc(CN2CCCC(NCc3c(C)nc4sccn34)C2)no1 (stereo not drawn) | 1.63
N#Cc1cccc(S(=O)(=O)NC(=O)COC2CCCC2)c1 | 11.3
CC(C)(C)c1nc(CN2CCCC2Cn2cccn2)no1 (stereo not drawn) | 12.2
CNS(=O)(=O)Cc1ccc(CNC(=O)c2cccc(C)n2)cc1 | -1.09
COc1cc(CNC(=O)c2c(C)noc2C(C)C)ccn1 | -2.32
Cc1noc(C(C)C)c1C(=O)NCc1cccc(N(C)C)c1 | 12.6
Cc1cccnc1NC(=O)NCc1ccc(N2CCNC(=O)C2)cc1 | -10.1
COc1cccc(S(=O)(=O)NC(=O)COC2CCCC2)c1 | -3.13
